Reference: PubChem BioAssay (NCI)
“And” between values parts separate entries of the source, which are not always exact repeats. Equal entries are not always repeated.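 Following 48 hours of exposure in 96-well plates, responses at five concentrations were used to interpolate endpoints linearly. GI50 marks 50% less growth. Definition used: TGI = concentration required for complete inhibition of growth.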 *1 amine or outer side, *2 acyl side, *3 side chain or, on linkers, in order; H or OH if unused. Where a SMILES comes first, the peptide text is derived from it. Bridges are numbered along the chain shown (N, C = ends). Roman numbers before positions name the chains, in order. [ ]: non-standard residue; d: D form. Actinocin(9to1) = Cc1c2oc3c(C)ccc(C(=O)[*:1])c3nc-2c(C(=O)[*:2])c(N)c1=O; NMeT = CN[CH](C(=O)O)[CH](C)O; Sar = CNCC(=O)O

Tests used:
Test in all cases: NCI-60 cell line screen, 48 h
LOX IMVI melanoma = tested on: LOX IMVI melanoma
M14 melanoma = tested on: M14 melanoma
HS 578T breast = tested on: HS 578T breast
SNB-75 CNS = tested on: SNB-75 CNS
SF-295 CNS = tested on: SF-295 CNS
NCI-H460 lung = tested on: NCI-H460 lung
HOP-62 NSCLC = tested on: HOP-62 NSCLC
KM12 colon = tested on: KM12 colon
IGROV1 ovarian = tested on: IGROV1 ovarian
HOP-92 NSCLC = tested on: HOP-92 NSCLC

| Structure (SMILES) | TGI (LOX IMVI melanoma) | TGI (M14 melanoma) [µM] | TGI (HS 578T breast) [µM] | TGI (SNB-75 CNS) | TGI (SF-295 CNS) [µM] | TGI (NCI-H460 lung) | TGI (HOP-62 NSCLC) [µM] | TGI (KM12 colon) [µM] | TGI (IGROV1 ovarian) [µM] | TGI (HOP-92 NSCLC) [µM] | GI50 (LOX IMVI melanoma) [µM] | GI50 (M14 melanoma) | GI50 (HS 578T breast) [µM] | GI50 (SNB-75 CNS) [µM] | GI50 (SF-295 CNS) [µM] | GI50 (NCI-H460 lung) [µM] | GI50 (HOP-62 NSCLC) [µM] | GI50 (KM12 colon) [µM] | GI50 (IGROV1 ovarian) [µM] | GI50 (HOP-92 NSCLC) [µM] |
| --- | --- | --- | --- | --- | --- | --- | --- | --- | --- | --- | --- | --- | --- | --- | --- | --- | --- | --- | --- | --- |
| Cc1cc(=O)oc2c(C)c(O)ccc12 | > 100 µM | > 100 | > 100 | > 100 µM | > 100 | > 100 µM | > 100 | > 100 | > 100 | > 100 |  |  |  |  |  |  |  |  |  |  |
| CC(=O)N1C/C(=C/c2ccc(Cl)cc2)C(=O)/C(=C/c2ccc(Cl)cc2)C1 | 0.395 µM | 2.11 | 5.24 | 2.64 µM | 3.02 | 4.22 µM | 1.25 | 0.676 | 2.11 | 4.06 | 0.184 | 0.735 µM | 1.43 | 0.963 | 1.08 | 1.32 | 0.516 | 0.255 | 0.761 | 1.52 |
| CCOC(=O)NC1C2CC(=O)OC(O2)C1OC(C)=O (configuration not stated) | > 100 µM | > 100 | > 100 | > 100 µM | > 100 | > 100 µM | > 100 | > 100 | > 100 | > 100 |  |  | > 100 |  |  |  |  |  |  |  |
| C=C1C(=O)OC2C1CCC(C)C1C=CC(=O)C12C (configuration not stated) | 5.25 µM | 4.85 | 15.4 | 26.8 µM | 18.1 | 18.9 µM | 41.1 | 5.96 | 19.4 | 13.3 |  |  |  |  |  |  |  |  |  |  |
| O=S(=O)(NCCCNc1nccc(-c2c(-c3ccc(F)c(O)c3)nc3sccn23)n1)c1ccc(F)cc1 | 5.53 µM | 3.14 | 7.07 | 8.38 µM | 5.27 | 6.35 µM | 8.7 | 8.36 | 5.88 | 6.24 | 0.578 | 0.0481 µM | 2.62 | 2.02 | 2.19 | 2.37 | 2.78 | 2.67 | 1.51 | 1.46 |
| Cc1c2oc3c(C)ccc(C(=O)NC4C(=O)NC(C(C)C)C(=O)N5CCCC5C(=O)N(C)CC(=O)N(C)C(C(C)O)C(=O)OC4C)c3nc-2c(C(=O)NC2C(=O)NC(C(C)C)C(=O)N3CCCC3C(=O)N(C)CC(=O)N(C)C(C(C)O)C(=O)OC2C)c(N)c1=O (configuration not stated) (I: TVP[Sar][NMeT] / II: TVP[Sar][NMeT]; ester I:1-I:C, II:1-II:C; linker I:N-II:N via Actinocin(9to1); configuration not given here) | 7.84 µM and > 1 µM | > 56.9 | > 27.1 | 3.43 µM and 0.839 µM | > 100 | 4.95 µM and > 1 µM | > 1 | > 100 | > 41.7 | > 71.4 |  | 7.14 µM and > 1 µM |  |  |  |  |  |  |  |  |
| CNC/C(Cl)=N/S(=O)(=O)c1ccc(C)cc1 | 27.3 µM | 39.7 | > 100 | 18.4 µM | 32.4 | 27.2 µM | 29.9 | 27.7 | 91.2 | 51.1 |  |  |  |  |  |  |  |  |  |  |
| NC[C@H]1Nc2ccccc2[C@@H](O)C1O (some centres not stated) | > 100 µM | > 100 | > 100 | > 100 µM | > 100 | > 100 µM | > 100 | > 100 | > 100 | > 100 |  |  |  |  |  |  |  |  |  |  |
| COc1ccc(NC([Se])=NC23CC4CC(CC(C4)C2)C3)cc1 | 5.09 µM | 3.29 | 7.89 | 4.5 µM | 4.15 | 10.7 µM | 9.49 | 5.54 | 7.7 | 14.2 | 1.91 | 1.37 µM | 2.08 | 1.54 | 1.52 | 1.98 | 2.24 | 1.85 | 1.64 | 2.34 |
| C=C1C(C2(C)C(OC(C)=O)CC(=O)OC(C)(COC(C)=O)C2CC(=O)OC)C(OC=O)C(OC(=O)C(O)C(C)CC)C2(C)C(c3ccoc3)CC(=O)C12O (configuration not stated) | > 100 µM | > 100 | > 100 | > 100 µM | > 100 | > 21.8 µM | > 100 | > 100 | > 100 | > 100 |  |  |  |  |  |  |  |  |  |  |
| c1cc(N2CCCN(c3ccc(C4=NCCCN4)cc3)CC2)ccc1C1=NCCCN1 | > 100 µM | > 100 | > 100 | > 100 µM | > 100 | > 100 µM | > 100 | > 100 | > 100 | > 100 | > 100 | > 100 µM | 77.7 | > 100 | 51.1 | 36.7 | > 100 | > 100 | > 100 | > 100 |
| Cc1cc(O)cc2c1[C@]1(C)CCC3C(C)(C)CCC[C@]3(C)[C@H]1C2 (some centres not stated) | 35.8 µM | 37.6 | 44.6 | 34.2 µM | 36 | 37.1 µM | 35.5 | 35.3 | 36.9 | 35.3 | 19.5 | 21.6 µM | 22.6 | 17.9 | 20.3 | 20.6 | 20.6 | 20 | 20.5 | 18.4 |
